Converted amounts (≈) assume the structure as drawn.
Assays:
[1] = test system: S.aureus ATCC 29213; format: cell-based, Staphylococcus aureus; conditions: ATCC 29213, 24 h
Method: (§1) Antimicrobial activity of the purified lipopeptoids was determined without replication against a panel of clinically relevant and standard reference bacterial strains according to CLSI macrobroth standards. Stock solutions at 512 µg/mL were prepared in water, with DMSO as needed, and testing was performed in glass test tubes using Muller-Hinton broth and bacteria adjusted to 5 × 10^5 CFU/mL. Bacteria were incubated with the lipopeptoid of interest for 24 hr at 37°C prior to reading.
(§2) The bacteria Staphylococcus aureus ATCC 29213, methicillin-resistant S. aureus ATCC 33592, Staphylococcus epidermidis ATCC 14990, Enterococcus faecalis ATCC 29212, E. faecium ATCC 27270, Streptococcus pneumoniae ATCC 49619, Escherichia coli ATCC 25922, Pseudomonas aeruginosa ATCC 27853, and Klebsiella pneumoniae ATCC 13883 were acquired from the American Type Culture Collection (ATCC) and used as quality controls. The clinical strains methicillin-resistant S. epidermidis (MRSE) CAN-ICU 61589, E. coli CAN-ICU 61714, E. coli CAN-ICU 63074, P. aeruginosa CAN-ICU 62308, Stenotrophomonas maltophilia CAN-ICU 62584, Acinetobacter baumannii CAN-ICU 63169 were obtained from hospitals across Canada as part of the CAN-ICU studies, while methicillin-susceptible S. epidermidis (MSSE) 81388 was obtained from the 2008 CANWARD study.
(§3) After subculturing the relevant bacteria twice from frozen stock, in vitro activities of the antimicrobials were determined by macrobroth dilution methodology in accordance with the Clinical and Laboratory Standards Institute (CLSI) guidelines (3). The MICs were determined using glass test tubes (2 mL/tube) containing doubling antimicrobial dilutions of cation adjusted Mueller-Hinton broth inoculated to achieve a final concentration of approximately 5 x 10^5 CFU/mL, incubated in ambient air for 24 hr prior to reading. Colony counts were performed periodically to confirm inocula. The ATCC organisms […] ATCC 49619, Staphylococcus aureus ATCC 29213, Enterococcus faecalis ATCC 29212, Escherichia coli ATCC 25922, and Pseudomonas aeruginosa ATCC 27853 were used as quality control and to allow easy comparison to previously tested antimicrobials. Each test in this series was performed without replication. In our experience with cationic amphiphiles the results are accurate to within a single doubling.

[2] = test system: MRSA ATCC 33592; format: cell-based, methicillin-resistant S. aureus; conditions: ATCC 33592, 24 h
Method: as §1, §2, §3

[3] = test system: MSSE 81388 CANWARD 2008; format: cell-based, methicillin-susceptible S. epidermidis; conditions: 24 h
Method: as §1, §2, §3

[4] = test system: MRSE CAN-ICU 61589; format: cell-based, methicillin-resistant S. epidermidis; conditions: CAN-ICU 61589, 24 h
Method: as §1, §2, §3

[5] = test system: E. faecalis ATCC 29212; format: cell-based, Enterococcus faecalis; conditions: ATCC 29212, 24 h
Method: as §1, §2, §3

[6] = test system: S.pneumoniae ATCC 49619; format: cell-based, Streptococcus pneumoniae; conditions: ATCC 49619, 24 h
Method: as §1, §2, §3

[7] = test system: P.aeruginosa ATCC 27853; format: cell-based, Pseudomonas aeruginosa; conditions: ATCC 27853, 24 h
Method: as §1, §2, §3

[8] = test system: P.aeruginosa CAN-ICU 62308; format: cell-based, Pseudomonas aeruginosa; conditions: CAN-ICU 62308, 24 h
Method: as §1, §2, §3

[9] = test system: S. maltophilia CAN-ICU 62584; format: cell-based, Stenotrophomonas maltophilia; conditions: CAN-ICU 62584, 24 h
Method: as §1, §2, §3

[10] = test system: A. baumannii CAN-ICU 63169; format: cell-based, Acinetobacter baumannii; conditions: CAN-ICU 63169, 24 h
Method: as §1, §2, §3

[11] = test system: K.pneumoniae ATCC 13883; format: cell-based, Klebsiella pneumoniae; conditions: ATCC 13883, 24 h
Method: as §1, §2, §3

[12] = test system: ovine erythrocytes; experiment: Haemolytic assay; format: cell-based, sheep; conditions: ovine erythrocytes in Tris buffered saline, 30 minutes, absorbance of supernatant at 540 nm
Method: Mammalian cell toxicity was determined by measuring lysis of ovine erythrocytes, a standard model for human cell toxicity. Cells were prewashed with Tris buffered saline and then incubated with a variety of lipopeptoid concentrations for 30 minutes. Following centrifugation, lysis was evaluated by testing the absorbance of the solution at 540 nm, with 0.5% NH4OH used as a positive control.
Toxicity to mammalian cells was determined using a sheep red blood cell (erythrocyte) haemolytic assay (4). Erythrocytes were washed and resuspended in Tris buffered saline prior to use, at a concentration of 1.46 - 4.5 x 10^9 cells/mL (on average 3.08 x 10^9 cells/mL). The cell suspension was diluted with varying concentrations of antimicrobials, from 50 μg/mL to 1 mg/mL and incubated for thirty minutes (final erythrocyte concentration 4.08 x 10^8 cells/mL). The samples were centrifuged following treatment and the absorbance of the supernatant was measured at 540 nm. A solution of 0.5% […] was used as a positive control, with normal buffered solution as the negative control. The toxicity was assessed as a function of percent haemolysis.

[13] = test system: E.coli ATCC 25922; format: cell-based, Escherichia coli; conditions: ATCC 25922, 24 h
Method: as §1, §2, §3

[14] = test system: E.coli CAN-ICU 61714; format: cell-based, Escherichia coli; conditions: CAN-ICU 61714, 24 h
Method: as §1, §2, §3

[15] = test system: E.coli CAN-ICU 63074; format: cell-based, Escherichia coli; conditions: CAN-ICU 63074, 24 h
Method: as §1, §2, §3

[16] = test system: E. faecium ATCC 27270; format: cell-based; conditions: ATCC 27270, 24 h
Method: as §1, §2, §3

MIC S.aureus [1] [µg/mL]	MIC S.aureus in the presence of 4% bovine serum albumin [1] [µg/mL]	MIC MRSA [2] [µg/mL]	MIC MRSA in the presence of 4% bovine serum albumin [2] [µg/mL]	MIC MSSE [3] [µg/mL]	MIC MSSE in the presence of 4% bovine serum albumin [3] [µg/mL]	MIC MRSE [4] [µg/mL]	MIC MRSE in the presence of 4% bovine serum albumin [4] [µg/mL]	MIC E. faecalis [5] [µg/mL]	MIC E. faecalis in the presence of 4% bovine serum albumin [5] [µg/mL]	MIC S.pneumoniae [6] [µg/mL]	MIC S.pneumoniae in the presence of 4% bovine serum albumin [6] [µg/mL]	MIC P.aeruginosa [7] [µg/mL]	MIC P.aeruginosa in the presence of 4% bovine serum albumin [7] [µg/mL]	MIC P.aeruginosa [8] [µg/mL]	MIC P.aeruginosa in the presence of 4% bovine serum albumin [8] [µg/mL]	MIC S. maltophilia [9] [µg/mL]	MIC S. maltophilia in the presence of 4% bovine serum albumin [9] [µg/mL]	MIC A. baumannii [10] [µg/mL]	MIC A. baumannii in the presence of 4% bovine serum albumin [10] [µg/mL]	SMILES	other results
16 (≈ 22.6 µM)	512	16 (≈ 22.6 µM)	512	8 (≈ 11.3 µM)	256	8 (≈ 11.3 µM)	256	16 (≈ 22.6 µM)	512	256 (≈ 361 µM)	64	512 (≈ 722 µM)	>512	256 (≈ 361 µM)	>512	256 (≈ 361 µM)	>512	128 (≈ 181 µM)	>512	CCCCCCCCCCCCCCCCCCCC(=O)N(CCCCNC(=N)N)CC(=O)NCC(=O)N(CCCCNC(=N)N)CC(N)=O [C20-NhargGNharg]	MIC K.pneumoniae [11]: 128 µg/mL (≈ 181 µM); MIC K.pneumoniae in the presence of 4% bovine serum albumin [11]: 512 µg/mL; Percent haemolysis at 100µg/mL of compound [12]: 71.87%; MIC E.coli [13]: 256 µg/mL (≈ 361 µM); MIC E.coli in the presence of 4% bovine serum albumin [13]: 512 µg/mL; MIC E.coli [14]: 256 µg/mL (≈ 361 µM); MIC E.coli in the presence of 4% bovine serum albumin [14]: >512 µg/mL; MIC E.coli [15]: 256 µg/mL (≈ 361 µM); MIC E.coli in the presence of 4% bovine serum albumin [15]: 512 µg/mL; MIC E. faecium [16]: 16 µg/mL (≈ 22.6 µM); MIC E. faecium in the presence of 4% bovine serum albumin [16]: 256 µg/mL
128 (≈ 184 µM)	512	128 (≈ 184 µM)	512	64 (≈ 92 µM)	512	256 (≈ 368 µM)	512	512 (≈ 736 µM)	>512	512 (≈ 736 µM)	>512	>512	>512	>512	>512	>512	>512	>512	>512	CCCCCCCCCCC(=O)N(CCCCNC(=N)N)CC(=O)N(CCCCNC(=N)N)CC(=O)N(CCCCNC(=N)N)CC(N)=O [C11-NhargNhargNharg]	MIC K.pneumoniae [11]: >512 µg/mL; MIC K.pneumoniae in the presence of 4% bovine serum albumin [11]: >512 µg/mL; MIC E.coli [13]: >512 µg/mL; MIC E.coli in the presence of 4% bovine serum albumin [13]: >512 µg/mL; MIC E.coli [14]: >512 µg/mL; MIC E.coli in the presence of 4% bovine serum albumin [14]: >512 µg/mL; MIC E.coli [15]: >512 µg/mL; MIC E.coli in the presence of 4% bovine serum albumin [15]: >512 µg/mL; MIC E. faecium [16]: 256 µg/mL (≈ 368 µM); MIC E. faecium in the presence of 4% bovine serum albumin [16]: 512 µg/mL

Source: article PMC3402541, “Guanidylation and Tail Effects in Cationic Antimicrobial Lipopeptoids” (PLoS ONE, 2012)
